Source: patent publication US20140357512A1, “HISTONE DEACETYLASE (HDAC) BIOMARKERS IN MULTIPLE MYELOMA” (priority 2013, published 2014)

Tested on: human myeloma cell line MM.1S
Experiment: SILAC acetylated-lysine peptide profiling, HDAC inhibitor vs DMSO (light/heavy ratio)
Format: cell-based
Source text: An embodiment of the invention comprises utilizing the SILAC method in order to quantitate changes in protein expression between two or more populations of cells. The SILAC method is a technique based on mass spectrometry that detects differences in protein abundance among samples using non-radioactive isotopic labeling. The SILAC method is known in the art, and described in detail in Ong et al., “Stable Isotope Labeling by Amino Acids in Cell Culture, SILAC, as a Simple and Accurate Approach to Expression Proteomics”, Molecular & Cellular Proteomics, vol. 1, pp. 376-386 (2002), which is incorporated herein by reference in its entirety.
Briefly, the SILAC method involves growing two populations of cells in cell culture. The first population of cells is grown in growth media containing normal amino acids (“normal media”). The second population of cells is grown in media lacking a standard essential amino acid (such as lysine), but is then supplemented with a non-radioactive, isotopically labeled form of that essential amino acid (such as lysine labeled with ^13C atoms, rather than normal ^12C atoms), which is called “heavy media”. When the two populations of cells are each growing in the medium, they incorporate the amino acids into all of their proteins. The growth of cells maintained in the heavy media is no different from that in normal media. All peptides containing the heavy amino acids are heavier than their normal counterparts. The cells from each of the two populations of cells are lysed. The lysates from each of the two cell populations are then combined. The combined cell lysates are then analyzed by mass spectrometry. Pairs of chemically identical peptides of different stable isotope composition can be differentiated in a mass spectrometer due to their difference in mass. The ratio of peak intensities in the mass spectrum for such peptide pairs reflects the abundance ratio for the two proteins.
This example describes SILAC studies that were performed to compare the effects of three different HDAC inhibitors (Compound A, Compound B, and tubastatin A) to a control on a human multiple myeloma cell line. The HDAC inhibitors were also compared amongst themselves to determine differences in their effects.
A human myeloma cell line MM.1S was grown using either ^12C (light) or ^13C (heavy) lysine containing culture medium. The “heavy” cells were treated with DMSO as the control, and the “light” cells were treated with a single HDAC inhibitor at 37° C. for 6 hours. The heavy and light cells were lysed, and the lysates were mixed in 1:1 ratio and digested with the protease trypsin. The acetylated lysine containing peptides (due to the action of the HDAC inhibitor) in the digested peptide pool were captured by a non-specific anti-acetylated lysine antibody cocktail (the antibodies identify both light and heavy acetylated peptides), and subjected to mass spectrometry analysis in order to identify thousands of individual peptides.
Thousands of peptides were identified in pairs (^12C and ^13C) due to their known mass differences. The amino acid sequence and quantitative ratio (Light/Heavy) of a given peptide in two differentially treated cell lysates were then determined and annotated with their possible protein (gene) sources.
As stated above, three HDAC inhibitors (Compound A, Compound B, and Tubastatin A) were used. Thus, the SILAC method was performed three times, with a different HDAC inhibitor compared to a control each time. Accordingly, there are three pairs of quantitative data in the table below, i.e., Compound A:DMSO, Compound B:DMSO, and Tubastatin A:DMSO. A cut-off of 1.30 fold of change (increase or decrease) was then used to determine “changed” or “+” in the table, and any peptides with a fold of change less than 1.3 fold were determined to be “unchanged” or “0” in the table. Those peptides that were not identified were marked as “NA” in the table. […]

CN1CCc2c(c3ccccc3n2Cc2ccc(C(=O)NO)cc2)C1 [Tub A]
light to heavy ratio (L/H ratio) of acetylated peptide SNPSEVVEFTTCPDK(ac)PGIPVKPSVK (SEQ ID NO: 336) (Isoform 2 of Fibronectin type-III domain-containing protein 3A [507], FNDC3A, drug:DMSO): 0.00 log 2 | light to heavy ratio (L/H ratio) of acetylated peptide LIAGNK(ac)PVSFLTAQQLQQLQQQGQATQVR (SEQ ID NO: 512) (Isoform 2 of Nuclear factor related to kappa-B-binding protein [1262], gene NFRKB, inhibitor:DMSO): 0.00 log 2 | light to heavy ratio (L/H ratio) of acetylated peptide YQQFK(ac)DFQR (SEQ ID NO: 258) (Isoform 2 of Spliceosome RNA helicase DDX39B [349], SNORD84, DDX39B, drug:DMSO): −0.38 log 2 | light to heavy ratio (L/H ratio), log 2 scale, acetylated peptide LEPLK(ac)PLK (SEQ ID NO: 772) (Isoform 3 of Proline-rich protein 12 [1223], gene PRR12, drug:DMSO): 0.00 | light to heavy ratio (L/H ratio), log 2 scale, acetylated peptide DQTK(ac)SIVEK (SEQ ID NO: 810) (Isoform 3 of Reticulon-3 [217], gene RTN3, drug:DMSO): 0.00 | light to heavy ratio (L/H ratio) of acetylated peptide VQDGLSDIAEK(ac)FLK (SEQ ID NO: 326) (Isoform 5 of Transcriptional regulator ATRX [812], ATRX, drug:DMSO): 0.00 log 2 | light to heavy ratio (L/H ratio) of acetylated peptide K(ac)SSETLR (SEQ ID NO: 601) (Isoform CNPI of 23-cyclic-nucleotide 3-phosphodiesterase [177], gene CNP, inhibitor:DMSO): 0.00 log 2 | light to heavy ratio (L/H ratio) of acetylated peptide MVAAAK(ac)YAR (SEQ ID NO: 324) (Isoform Heart of ATP synthase subunit gamma mitochondrial [55], ATP5C1, drug:DMSO): 0.00 log 2 | light to heavy ratio (L/H ratio) of acetylated peptide VPNDK(ac)YYGAQTVR (SEQ ID NO: 625) (Isoform Mitochondrial of Fumarate hydratase mitochondrial [66], gene FH, inhibitor:DMSO): 0.00 log 2 | light to heavy ratio (L/H ratio) of acetylated peptide APQCLGK(ac)FIEIAAR (SEQ ID NO: 338) (Isoform Short of Heterogeneous nuclear ribonucleoprotein U [546], HNRNPU, drug:DMSO): 0.00 log 2 | light to heavy ratio (L/H ratio) of acetylated peptide LLEQYK(ac)EESK (SEQ ID NO: 302) (Isoform Short of Heterogeneous nuclear ribonucleoprotein U [651], HNRNPU, drug:DMSO): −0.57 log 2 | light to heavy ratio (L/H ratio) of acetylated peptide, log 2 scale (K(ac)HPDASVNFSEFSK (SEQ ID NO: 164), Similar to nonhistone chromosomal protein HMG-1 [30], HMGB1P4): −0.39 | light to heavy ratio (L/H ratio) of acetylated peptide, log 2 scale (K(ac)TFEINPR (SEQ ID NO: 171), Endoplasmin [683], HSP90B1): −0.73 | light to heavy ratio (L/H ratio) of acetylated peptide, log 2 scale (K(ac)YEDICPSTHNMDVPNIK (SEQ ID NO: 152), Eukaryotic translation initiation factor 5A-2 [68], EIF5A2): −0.56 | light to heavy ratio (L/H ratio) of acetylated peptide, log 2 scale (KLPK(ac)NEPQNATGAPGR (SEQ ID NO: 198), Ras-related protein Rab-5C [184], RAB5C): 0.38 | light to heavy ratio (L/H ratio), log 2 scale, acetylated peptide (ac)ASPSLERPEK(ac)GAGK (SEQ ID NO: 801) (KRR1 small subunit processome component homolog [11], gene KRR1, drug:DMSO): 0.00 | light to heavy ratio (L/H ratio) of acetylated peptide IVADK(ac)DYSVTANSK (SEQ ID NO: 317) (L-lactate dehydrogenase B chain [82], LDHB, drug:DMSO): 0.51 log 2 | L/H ratio of acetylated peptide (LAK(ac)LSDGVAVLK (SEQ ID NO: 484), 60 kDa heat shock protein mitochondrial [396], HSPD1): 0.00 log 2 | light to heavy ratio (L/H ratio) of acetylated peptide, log 2 scale (LENK(ac)MEGIGLK (SEQ ID NO: 131), PRA1 family protein 3 [151], ARL6IP5): 0.67 | light to heavy ratio (L/H ratio) of acetylated peptide, log 2 scale (LIK(ac)VHLDK (SEQ ID NO: 215), 40S ribosomal protein S7 [155], RPS7): −0.50 | light to heavy ratio (L/H ratio) of acetylated peptide, log 2 scale (LIYDTK(ac)GR (SEQ ID NO: 213), 40S ribosomal protein S4 X isoform [106], RPS4X): −0.40 | L/H ratio of acetylated peptide IHLEIK(ac)QLNR (SEQ ID NO: 57) (LMAN1 [346], log 2 scale, drug vs DMSO): −0.56 | L/H ratio of acetylated peptide LYK(ac)EELEQTYHAK (SEQ ID NO: 4) (LMNB1 [261], log 2 scale, drug vs DMSO): 0.46 | L/H ratio of acetylated peptide LYKEELEQTYHAK(ac)LENAR (SEQ ID NO: 58) (LMNB1 [271], log 2 scale, drug vs DMSO): −0.73 | light to heavy ratio (L/H ratio) of acetylated peptide, log 2 scale (LNEQK(ac)LAQLEEAK (SEQ ID NO: 133), ATP synthase subunit b mitochondrial [131], ATP5F1): 0.72 | L/H ratio of acetylated peptide GFGYK(ac)GSCFHR (SEQ ID NO: 59) (LOC390956 [71], log 2 scale, drug vs DMSO): −0.45 | light to heavy ratio (L/H ratio) of acetylated peptide, log 2 scale (LSLDK(ac)VFR (SEQ ID NO: 226), Stomatin-like protein 2 [145], STOML2): −0.41 | light to heavy ratio (L/H ratio) of acetylated peptide, log 2 scale (LTALDYHNPAGFNCK(ac)DETEFR (SEQ ID NO: 137), UPF0568 protein C14orf166 [20], C14orf166): 0.41 | light to heavy ratio (L/H ratio) of acetylated peptide, log 2 scale (LTEAKPVDK(ac)VK (SEQ ID NO: 221), cDNA FLJ60124 highly similar to Mitochondrial dicarboxylate carrier [142], SLC25A10): −0.50 | L/H ratio of acetylated peptide (LTLSALLDGK(ac)NVNAGGHK (SEQ ID NO: 466), Voltage-dependent anion-selective channel protein 1 [266], VDAC1): 0.00 log 2 | L/H ratio of acetylated peptide (LVSEK(ac)LASYQAAR (SEQ ID NO: 476), Isoform 2 of Myc proto-oncogene protein [163], MYC): 0.00 log 2 | light to heavy ratio (L/H ratio) of acetylated peptide AVLK(ac)FAAATGATPIAGR (SEQ ID NO: 262) (Laminin receptor-like protein LAMRL5 [89], SNORA6, RPSAP15, SNORA62, RPSA, drug:DMSO): −0.53 log 2 | light to heavy ratio (L/H ratio) of acetylated peptide SYVSEK(ac)DVTSAK (SEQ ID NO: 628) (Leucine-rich PPR motif-containing protein mitochondrial [1332], gene LRPPRC, inhibitor:DMSO): 0.00 log 2 | L/H ratio of acetylated peptide ICCQFDFK(ac)R (SEQ ID NO: 60) (MAN2A1 [373], log 2 scale, drug vs DMSO): −0.69 | L/H ratio of acetylated peptide YLTNQK(ac)NSNSK(ac)NDR (SEQ ID NO: 17) (MEAF6 [69:74], log 2 scale, drug vs DMSO): 0.58 | light to heavy ratio (L/H ratio) of acetylated peptide, log 2 scale (MKENQK(ac)HIYYITGETK (SEQ ID NO: 169), Isoform 2 of Heat shock protein HSP 90-alpha [611], HSP90AA1): −0.46 | L/H ratio of acetylated peptide TLVLSDK(ac)HSPQK(ac)K (SEQ ID NO: 5) (MLL3 [2809:2814], log 2 scale, drug vs DMSO): 0.67 | light to heavy ratio (L/H ratio) of acetylated peptide, log 2 scale (MPTPVIK(ac)AFGILK (SEQ ID NO: 154), Isoform Mitochondrial of Fumarate hydratase mitochondrial [94], FH): −0.55 | L/H ratio of acetylated peptide LNK(ac)DQWEER (SEQ ID NO: 10) (MSN [165], log 2 scale, drug vs DMSO): −0.38 | light to heavy ratio (L/H ratio) of acetylated peptide LSLLSK(ac)FR (SEQ ID NO: 564) (Mitochondrial trifunctional protein beta subunit (Fragment) [100], gene HADHB, inhibitor:DMSO): 0.00 log 2 | light to heavy ratio (L/H ratio) of acetylated peptide EIFQNEK(ac)R (SEQ ID NO: 288) (NAD(P) transhydrogenase mitochondrial [70], NNT, drug:DMSO): 0.55 log 2 | light to heavy ratio (L/H ratio) of acetylated peptide AISPDK(ac)DNFYFDVK (SEQ ID NO: 284) (NAD(P) transhydrogenase mitochondrial [403], NNT, drug:DMSO): 0.40 log 2 | light to heavy ratio (L/H ratio) of acetylated peptide, log 2 scale (NATVGQSVLNIK(ac)YK (SEQ ID NO: 194), Peroxisome biogenesis factor 2 [84], PEX2): 0.51 | light to heavy ratio (L/H ratio) of acetylated peptide, log 2 scale (NCMTDLLAK(ac)LEAK (SEQ ID NO: 201), Receptor expression-enhancing protein 5 [25], REEP5): 0.49
